# Laboratory results reported in a melting point compilation (Tetko et al.; mined from patent text by program, amines drawn as free bases though some values may be those of a salt).
row,melting point,Compound
1,180 °C,CC(=O)OC1CSC(Oc2ccc(-c3ccncc3)cc2)C(OC(C)=O)C1OC(C)=O (stereo not drawn)
2,205 to 206 °C,Nc1nc2c(c(Nc3ccc(F)cc3)n1)-c1ccccc1C2
3,83 to 84 °C,COc1ccc(N=C=O)cc1
4,229 to 230 °C,CNC(=O)Nc1ccc2[nH]cc(C3CCN(C)CC3)c2n1
5,157 to 159 °C,COc1ccc(N2CCN(c3c(C)c(C)c4c(c3C)C(O)(c3ccc(OC)cc3)C(C)(C)O4)CC2)cc1 (stereo not drawn)
6,227 to 231 °C,Cc1[nH]c(N)c(C)c1-c1ccnc(Nc2ccc(F)cc2)n1
7,229 to 230 °C,CCN1CCN(CCCOc2cc3ncc(C#N)c(Nc4ccc(Sc5nc(C)c(C)n5CC)c(Cl)c4)c3cc2OC)CC1
8,165 to 170 °C,CC1c2onc(-c3ccc(Cl)cc3)c2CCC1(C)C(=O)O (stereo not drawn)
9,120 to 123 °C,Clc1ccc2c(c1)N=C(N1CCNCC1)c1nccn1C2
10,97.2 °C,CC(C)(C)OC(=O)N1CCO[C@@H](c2ccc(Br)cc2)C1
11,150 to 154 °C,Cc1c(CNC(C)C)ncn1C(c1ccccc1)(c1ccccc1)c1ccccc1
12,130 to 131 °C,COC(=O)c1c(C)nc2c(c1N)c1c(n2Cc2ccc(OC)cc2)CCCC1
13,209 to 212 °C,Cc1ccc(/C=C/C2=CCN(Cc3c[nH]c4ncccc34)CC2)cc1
14,97 to 98 °C,O=Cc1cccc(Sc2ccc(O)cc2)c1O
15,144 to 145 °C,O=c1cc(-c2ccncc2)oc2ccccc12
16,190 to 191 °C,CCOC(=O)CCc1cn(Cc2ccc(C(=O)NCc3nc(-c4ccccc4)oc3C)cc2)nc1-c1ccccc1
17,107 to 109 °C,OCC1Cc2c(ccc3c(-c4ccccc4)noc23)O1 (stereo not drawn)
18,119 to 120 °C,C[C@@H](SCCCO)[C@](O)(Cn1cncn1)c1ccc(F)cc1F (relative stereo)
19,164 °C,COc1cc(NC(NC2CCC2)=C(C#N)S(=O)(=O)c2ccc(Cl)cc2)cc(OC)c1
20,158 to 160 °C,CC(C)(C)OC(=O)N[C@H](CNc1ccccc1N)C(=O)O
21,187 to 192 °C,O=Cc1csc2cc([N+](=O)[O-])ccc12
22,81 to 83 °C,O=C1CCC(C2CO2)N1Cc1ccccc1Cl (stereo not drawn)
23,122 to 123 °C,O=C(NCC/C=C/CCCNC(=O)c1ccc(OC(F)F)cc1)c1ccc(OC(F)F)cc1
24,99 to 101 °C,CCCCOc1ccc(S(N)(=O)=O)cc1
25,149 to 152 °C,Cc1cccc(Cl)c1NC(=O)Nc1cc(N[C@H]2CC[C@H](O)CC2)ncn1
26,215 to 218 °C,CCCCN1Cc2c([nH]c3ccccc23)C1=O

row,melting point,Compound
1,155 to 156 °C,CCC(=O)COc1ccc(CC2SC(=O)N(C(c3ccccc3)(c3ccccc3)c3ccccc3)C2=O)cc1 (stereo not drawn)
2,88 to 89 °C,COc1ccc(CCN2CCc3cc(OCc4ccccc4)c(OC)cc3C2)cc1
3,66 to 69 °C,O=[N+]([O-])C1(Cc2ccccc2)CN(Cc2ccccc2)CCN(Cc2ccccc2)C1
4,211 to 212 °C,CCOC(=O)c1cn(-c2ccc(F)cc2F)c2c(Cl)c(F)c(F)cc2c1=O
5,187 to 188 °C,CNC(=O)C1=CC(CF)(CF)Oc2ccc(Br)cc21
6,63 °C,O=C(Cl)N1CC=C(c2ccccc2)CC1
7,95 to 99 °C,COC(=O)CCc1cc2ccccc2n1S(=O)(=O)c1ccccc1
8,109 to 111 °C,CNC(=O)c1oc(C(C)(C)C)cc1NC(=O)Nc1ccc(F)cc1
9,118 to 122 °C,COc1cc(CC(C#N)(C=O)C(OC)OC)cc(OC)c1OC (stereo not drawn)
10,202 to 203 °C,O=C1Nc2cccnc2N(C(=O)CN2CCC(CCCN3CCCCC3)CC2)c2ccccc21
11,104 to 105 °C,CCOC(=O)/C=C/c1c[nH]c(-c2cccs2)c1
12,175 to 176 °C,COC(=O)C(=O)c1ccc(NC(=O)COc2ccc3ccccc3c2)cc1
13,164 to 167 °C,Cc1nc2ccc(CNS(=O)(=O)c3ccccc3)cc2n1Cc1ccccc1Cl
14,141 to 143 °C,CC(C)(C)c1cc(-c2nn(CC#N)c3ncccc23)cc(C(C)(C)C)c1O
15,257 to 260 °C,CCCn1nc2c(N)nc3ncccc3c2c1CC(C)C
16,130 to 131 °C,c1ccc(CN2CCN(Cc3n[nH]c4ccccc34)CC2)cc1
17,219 to 221 °C,NS(=O)(=O)c1cc2c(s1)S(=O)(=O)CC(=S)N2
18,53 to 55 °C,OC/C=C/c1ccc(C(F)(F)F)cc1
19,153 to 154 °C,CCOC(=O)c1nc[nH]c1F
20,56 to 57 °C,CCCCOc1ccc(C=CCCCC(=O)O)cc1
21,75 to 78 °C,CN(C)CCNC(=O)c1ccc(-c2cccc(CSCCOc3ccccc3)c2)cc1
22,196 to 198 °C,CCc1c(-c2ccccc2)c2c(COCCN3CCCCC3)cc3c(O)ccc1n32
23,110 to 115 °C,CN(C)S(=O)(=O)c1cccc(-c2ccnc(C(=O)N(O)Cc3ccccc3)c2)c1
24,150 to 151 °C,CC(C)(C)OC(=O)NC(Cc1ccccc1)C(O)CNCC(O)C(CCc1ccccc1)NC(=O)OCc1ccccc1 (stereo not drawn)
25,211 to 213 °C,O=c1c2cc(F)c(N3CCCC3)cc2n(CC2CC2)c(=O)n1O
26,255 to 258 °C,Nc1cc[nH]c(=O)c1Br

row,melting point,Compound
1,268 to 270 °C,CCCc1c(/C=C/c2cc(OC)cc(OC)c2)nc2ccc(C(=O)O)cn2c1=O
2,101 to 104 °C,COc1cccc(-c2ccc3c(c2)C2(CCCCC2)C(=NO)N3)c1
3,153 to 155 °C,CC(=O)N[C@H]1CCCc2ccccc21
4,182 to 185 °C,O=C(O)C1C(c2ccc3c(c2)OCO3)c2ccccc2C1c1ccc2c(c1)OCO2 (racemic)
5,168 to 169 °C,Cc1oc(-c2ccccc2)nc1CC=Cc1ccc(CC2OC(=O)NC2=O)cc1 (stereo not drawn)
6,189 to 191 °C,C=S1C(=NC(F)(F)F)C(=NC(F)(F)F)N(c2ccccc2)C1C(C)=O (stereo not drawn)
7,169 to 173 °C,O=C1N[C@H](C(=O)O)CSCCCCCCCC1CS (stereo partly drawn)
8,167 °C,ON=C(c1ccc(CN2CCOCC2)cc1)c1cccc2nc(N[C@@H]3CCc4ccccc43)ccc12
9,> 205 °C,Oc1ccc(-c2nn(-c3ccccc3F)c3cc(O)ccc23)c(O)c1
10,133 °C,C[C@@H]1Cc2ccsc2[C@H](C)N1CCNC(=O)c1ccc(NC(=O)C(C)(C)C)cc1 (relative stereo)
11,127 to 128 °C,CNC(=O)C(N)Cc1ccc2ccccc2c1 (stereo not drawn)
12,70 to 71 °C,CC(=O)c1ccc(OCCc2nc(-c3ccccc3)oc2C)cc1
13,64 to 67 °C,CC(NO)c1ccc2c(c1)Sc1ccccc1O2 (stereo not drawn)
14,185 to 187 °C,O=C1CCC(c2ccncc2)=NN1
15,239 to 241 °C,CS(=O)(=O)c1cc(C(=O)N=C(N)N)ccc1N1CCC(N)CC1
16,232 to 235 °C,O=C(Nc1ccc(C(=O)N2Cc3ccccc3Cc3ccccc32)cc1)c1ccccc1OC(F)(F)F
17,68.3 to 70.6 °C,COc1ccc(-c2nn(CC(C)=O)c(=O)cc2-c2ccncc2)cc1
18,62 to 63.5 °C,CCCC1NS(=O)(=O)N(CCl)C1=O (stereo not drawn)
19,192 to 195 °C,O=C(CCCl)NC12CCCC(C1)C1CCC2C1 (stereo not drawn)
20,206 to 208 °C,CCC(C)(C)c1cc(-c2cccc(C=C3SC(N4CCOCC4)=NC3=O)c2)cc(F)c1O
21,106 to 107 °C,O=CNCS(=O)(=O)c1ccccc1
22,241 to 242 °C,CC(C)c1cc(O)cc(C(C)C)c1NC(=O)CN1CCN(CCSc2nc3ccccc3[nH]2)CC1
23,203 to 207 °C,Ic1ccc2c(c1)Cc1cc(I)ccc1-2
24,134 to 136 °C,OC(Cc1cc(-c2ccccc2)on1)N1CCOCC1 (stereo not drawn)
25,169 to 170 °C,CC(CC(=O)O)C(=O)NC1(C(=O)O)CCCC1 (stereo not drawn)
26,32 to 39 °C,Cc1nn(C)c(NCC(C)(C)C)c1NCc1ccc(F)cc1

row,melting point,Compound
1,154 to 155 °C,O=C1Cc2ccccc2C(c2ccccc2)CN1 (stereo not drawn)
2,64 to 68 °C,CCCCNC(=O)CCC(=NNC(N)=S)c1ccccc1
3,122 °C,Clc1ccc(-c2ccc(C3=NC[C@H](c4ccccc4)O3)cc2)cc1
4,149 °C,O=[N+]([O-])c1cc2c(Nc3cc(Cl)c(Cl)cc3F)ncnc2cc1OCCOCCO
5,72 °C,CC(C)c1nn2ccccc2c1C(=O)C1CC1
6,60 to 61.3 °C,O=C(Nc1cc(-n2cccn2)nc(-c2ccco2)n1)OCC1CCCC1
7,262 to 264 °C,COc1cc2[nH]c(=O)n(CC(C)S)c(=O)c2cc1OC (stereo not drawn)
8,153 to 156 °C,c1ccc(NC2=NC(Nc3ccccc3)(c3ccccc3)C(c3ccccc3)=N2)cc1 (stereo not drawn)
9,228 to 229 °C,CCOCc1nc2c(N)nc3cc(-c4cccnc4)ccc3c2n1Cc1ccc(CNS(C)(=O)=O)cc1
10,174 to 176 °C,CC(C)C[C@H](NC(=O)c1ccc2c(c1)Nc1ccccc1S2)C(=O)N[C@@H](CC(C)C)C(=O)N[C@@H](CC(C)C)C(=O)N[C@H]1CCOC1O (stereo partly drawn)
11,104 to 105 °C,O=C1CCCN1C1=CC(CF)(CF)Oc2ccc(C(F)(F)C(F)(F)F)cc21
12,116 to 118 °C,O=C(CNC(=O)c1ccc([N+](=O)[O-])cc1[N+](=O)[O-])OCc1ccccc1
13,223 to 225 °C,N#Cc1ccc(C(=O)NCCCCn2cnc3c(N)nc4ccccc4c32)cc1
14,65 to 70 °C,O=C(C=CCl)c1cc(F)c(Cl)cc1Cl
15,54 to 68 °C,Cc1ccc(C(=NO)C(F)(F)F)cc1
16,> 330 °C,NS(=O)(=O)c1cc2[nH]c(=O)c(=O)[nH]c2cc1[N+](=O)[O-]
17,203 to 205 °C,CN1CCN(CC2CCCCN2CC(=O)N2c3ccccc3C(=O)Nc3cccnc32)CC1 (stereo not drawn)
18,154 to 157 °C,CCOc1cc(N)c(Cl)cc1C(=O)[NH+]([O-])CC1CN(Cc2ccccc2Cl)CCO1 (stereo not drawn)
19,99 to 100 °C,CCCCOC(=O)CS(=O)(=O)CC=C1SC=CS1
20,84 to 86 °C,CCc1ccc(-c2nc3ccccc3o2)cc1
21,184 to 190 °C,NNC(=O)N(NC(=O)CSC(=O)c1ccccc1)C(=O)CSC(=O)c1ccccc1
22,136 to 138 °C,CC1(C)OC(=O)C(Oc2cccc(F)c2)=C1c1ccc(S(C)(=O)=O)cc1
23,139 to 140 °C,Cc1oc(-c2ccccc2)nc1COc1ccc(CON=C(CCC(=O)O)c2ccc(F)cc2)cc1

row,Compound,melting point
1,NS(=O)(=O)c1ccccc1SCCF,83 to 85 °C
2,Cc1cc(Cl)ccc1Cn1nc(C=O)c2ccccc21,107 to 109 °C
